From patent US8987216B2, “Polysulfated glycosides and salts thereof” (Teva Hungary Pharmaceutical Marketing Private Limited …, priority 2004, dated 2015)
Structures can show the parent of a compound that is named as a salt. Where two headings read alike, the source gives them in different places.

Key:
[1] = biological target: T1, IP-3 receptor (Rattus norvegicus, UniProt P29994); experiment: IP-3 receptor antagonistic effect: inhibition of IP3 binding to its receptor in rat cerebellum membrane preparations
T1 construct: determined using rat cerebellum membrane preparations; from tissue; host or cells: rat cerebellum (microsomal membrane preparation)
T1 sequence (P29994 whole entry): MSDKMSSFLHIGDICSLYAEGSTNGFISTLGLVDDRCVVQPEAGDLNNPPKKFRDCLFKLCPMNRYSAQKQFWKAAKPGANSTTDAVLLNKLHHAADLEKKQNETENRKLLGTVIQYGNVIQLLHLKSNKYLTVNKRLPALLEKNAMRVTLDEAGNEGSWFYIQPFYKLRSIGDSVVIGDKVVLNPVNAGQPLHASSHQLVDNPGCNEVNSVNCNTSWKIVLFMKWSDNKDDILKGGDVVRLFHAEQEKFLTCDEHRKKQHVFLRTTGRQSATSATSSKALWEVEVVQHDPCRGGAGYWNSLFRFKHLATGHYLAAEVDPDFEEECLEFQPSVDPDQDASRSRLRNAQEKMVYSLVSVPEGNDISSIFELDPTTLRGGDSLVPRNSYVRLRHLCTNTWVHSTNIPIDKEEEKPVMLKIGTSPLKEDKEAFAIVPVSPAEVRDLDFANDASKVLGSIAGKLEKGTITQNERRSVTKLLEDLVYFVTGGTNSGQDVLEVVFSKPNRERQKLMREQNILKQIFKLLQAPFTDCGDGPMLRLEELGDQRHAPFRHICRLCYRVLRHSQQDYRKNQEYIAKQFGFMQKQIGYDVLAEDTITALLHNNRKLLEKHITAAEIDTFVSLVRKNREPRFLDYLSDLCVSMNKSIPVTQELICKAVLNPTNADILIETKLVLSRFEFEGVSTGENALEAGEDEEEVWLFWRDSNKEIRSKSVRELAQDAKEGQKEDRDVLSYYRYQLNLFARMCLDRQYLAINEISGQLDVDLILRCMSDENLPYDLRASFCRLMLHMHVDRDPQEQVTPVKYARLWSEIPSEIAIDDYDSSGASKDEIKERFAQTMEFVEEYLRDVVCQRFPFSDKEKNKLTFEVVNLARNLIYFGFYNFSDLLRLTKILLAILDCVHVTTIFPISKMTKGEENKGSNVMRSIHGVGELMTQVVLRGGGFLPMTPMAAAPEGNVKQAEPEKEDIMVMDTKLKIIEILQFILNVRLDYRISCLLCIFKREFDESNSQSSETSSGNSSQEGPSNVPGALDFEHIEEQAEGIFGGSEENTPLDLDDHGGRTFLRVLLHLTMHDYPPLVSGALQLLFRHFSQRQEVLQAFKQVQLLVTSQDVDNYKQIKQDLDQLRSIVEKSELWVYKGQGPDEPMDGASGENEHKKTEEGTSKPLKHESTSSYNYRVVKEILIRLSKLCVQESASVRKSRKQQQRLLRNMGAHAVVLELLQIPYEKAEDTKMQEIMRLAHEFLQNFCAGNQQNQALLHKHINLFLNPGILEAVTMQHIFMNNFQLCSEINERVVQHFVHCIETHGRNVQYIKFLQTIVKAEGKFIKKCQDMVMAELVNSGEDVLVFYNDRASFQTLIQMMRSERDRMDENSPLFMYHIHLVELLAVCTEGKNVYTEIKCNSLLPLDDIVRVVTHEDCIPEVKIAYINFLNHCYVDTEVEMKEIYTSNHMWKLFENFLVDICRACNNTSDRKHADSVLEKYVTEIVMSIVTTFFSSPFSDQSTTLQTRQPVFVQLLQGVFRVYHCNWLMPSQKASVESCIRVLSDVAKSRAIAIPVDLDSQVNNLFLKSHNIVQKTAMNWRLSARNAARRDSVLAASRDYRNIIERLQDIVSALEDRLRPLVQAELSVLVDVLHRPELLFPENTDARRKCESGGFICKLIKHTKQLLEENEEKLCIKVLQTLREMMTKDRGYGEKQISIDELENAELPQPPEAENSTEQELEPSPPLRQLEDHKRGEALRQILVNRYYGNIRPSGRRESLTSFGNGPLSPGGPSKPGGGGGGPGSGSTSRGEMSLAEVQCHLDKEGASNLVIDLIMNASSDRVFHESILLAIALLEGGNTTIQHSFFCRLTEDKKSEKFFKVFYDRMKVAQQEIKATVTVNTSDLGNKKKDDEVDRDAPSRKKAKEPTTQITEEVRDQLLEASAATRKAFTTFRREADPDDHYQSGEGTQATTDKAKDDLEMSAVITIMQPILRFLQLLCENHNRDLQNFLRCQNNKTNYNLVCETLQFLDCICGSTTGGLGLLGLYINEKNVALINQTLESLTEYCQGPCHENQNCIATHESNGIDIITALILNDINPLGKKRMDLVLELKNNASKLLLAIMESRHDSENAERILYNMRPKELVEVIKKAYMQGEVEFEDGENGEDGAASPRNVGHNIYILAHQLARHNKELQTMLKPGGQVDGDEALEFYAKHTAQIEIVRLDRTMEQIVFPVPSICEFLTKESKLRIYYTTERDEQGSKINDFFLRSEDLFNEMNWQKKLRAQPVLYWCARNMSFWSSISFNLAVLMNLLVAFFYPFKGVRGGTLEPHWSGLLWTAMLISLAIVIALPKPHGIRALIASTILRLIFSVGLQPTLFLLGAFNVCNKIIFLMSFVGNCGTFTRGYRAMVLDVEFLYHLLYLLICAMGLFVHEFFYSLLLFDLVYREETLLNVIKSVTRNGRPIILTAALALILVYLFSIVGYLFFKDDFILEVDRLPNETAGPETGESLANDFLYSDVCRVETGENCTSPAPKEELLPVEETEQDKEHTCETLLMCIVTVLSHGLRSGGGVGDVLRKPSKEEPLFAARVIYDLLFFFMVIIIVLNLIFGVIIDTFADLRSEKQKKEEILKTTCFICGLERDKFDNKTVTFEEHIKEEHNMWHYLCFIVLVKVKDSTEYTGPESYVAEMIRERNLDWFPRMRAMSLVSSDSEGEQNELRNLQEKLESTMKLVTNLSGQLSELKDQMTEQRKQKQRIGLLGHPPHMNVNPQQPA
Experimental: Glycosides of the present invention, depending on their chemical structure, inhibit the binding of inositol-1,4,5-trisphosphate (IP3) to its receptor in microsomal membrane preparations. As IP3 is a messenger molecule playing distinguished role in the activation of different cells, interfering with this function can explain the anti-asthmatic effect of these polysulfated glycosides.
The IP3 antagonist effect of the polysulfated glycosides were determined using rat cerebellum membrane preparations according to Worley et al. (JBC 262, 12132, 1987).

[2] = read-out: IC 50 (μg/ml) Average ± SEM (n) (converted)

SMILES | melting point [°C] | IC50 ([1]; read-out: Average IC50) [nM] | IC50 [1, 2] [nM]
O=S(=O)(O)OC[C@H](OS(=O)(=O)O)[C@@H](O[C@@H]1O[C@H](COS(=O)(=O)O)[C@@H](OS(=O)(=O)O)[C@H](OS(=O)(=O)O)[C@H]1OS(=O)(=O)O)[C@H](OS(=O)(=O)O)[C@@H](COS(=O)(=O)O)OS(=O)(=O)O (as salt: potassium) [Example 4, 1,2,4,5,6-penta-O-sulfato-3-O-(2,3,4,6-tetra-β-sulfato-β-D-glucopyranosyl)-D-glucitol nona potassium salt] | > 220 | – | –
O=S(=O)(O)OC[C@H](OS(=O)(=O)O)[C@@H](OS(=O)(=O)O)[C@H](O[C@H]1O[C@H](COS(=O)(=O)O)[C@@H](OS(=O)(=O)O)[C@H](OS(=O)(=O)O)[C@H]1OS(=O)(=O)O)[C@@H](COS(=O)(=O)O)OS(=O)(=O)O (as salt: potassium) [Example 5, 1,2,3,5,6-penta-O-sulfato-4-O-(2,3,4,6-tetra-O-sulfato-α-D-glucopyranosyl)-D-glucitol nona potassium salt] | > 220 | – | –
O=S(=O)(O)OC[C@H]1O[C@@H](OC[C@H](OS(=O)(=O)O)[C@@H](OS(=O)(=O)O)[C@H](OS(=O)(=O)O)[C@@H](COS(=O)(=O)O)OS(=O)(=O)O)[C@H](OS(=O)(=O)O)[C@@H](OS(=O)(=O)O)[C@@H]1OS(=O)(=O)O [Example 3, 2,3,4,5,6-penta-O-sulfato-1-O-(2,3,4,6-tetra-O-sulfato-β-D-glucopyranosyl)-D-glucitol nona potassium salt] | – | 405 | 535
O=S(=O)(O)OC[C@H](OS(=O)(=O)O)[C@@H](OS(=O)(=O)O)[C@H](O[C@@H]1O[C@H](COS(=O)(=O)O)[C@H](OS(=O)(=O)O)[C@H](OS(=O)(=O)O)[C@H]1OS(=O)(=O)O)[C@@H](COS(=O)(=O)O)OS(=O)(=O)O [Example 7, 1,2,3,5,6-penta-O-sulfato-4-O-(2,3,4,6-tetra-O-sulfato-β-D-galactopyranosyl)-D-glucitol nona potassium salt] | – | 256 | 338
O=S(=O)(O)OC[C@H]1O[C@@H](OC[C@@H](OS(=O)(=O)O)[C@@H](OS(=O)(=O)O)[C@H](OS(=O)(=O)O)[C@@H](CO[C@@H]2O[C@H](COS(=O)(=O)O)[C@@H](OS(=O)(=O)O)[C@H](OS(=O)(=O)O)[C@H]2OS(=O)(=O)O)OS(=O)(=O)O)[C@H](OS(=O)(=O)O)[C@@H](OS(=O)(=O)O)[C@@H]1OS(=O)(=O)O [Example 9, 2,3,4,5-tetra-O-sulfato-1,6-bis-O-(2,3,4,6-tetra-O-sulfato-β-D-glucopyranosyl)-D-mannitol dodeca potassium salt] | – | 634 | 832
CO[C@@H]([C@H](OC)[C@@H](COS(=O)(=O)O)OS(=O)(=O)O)[C@@H](CO[C@@H]1O[C@H](CO[C@@H]2O[C@H](COS(=O)(=O)O)[C@@H](OS(=O)(=O)O)[C@H](OS(=O)(=O)O)[C@H]2OS(=O)(=O)O)[C@@H](OS(=O)(=O)O)[C@H](OS(=O)(=O)O)[C@H]1OS(=O)(=O)O)OS(=O)(=O)O [Example 14, 3,4-di-O-methyl-2,5,6-tri-O-sulfato-1-O-(2,3,4,2′,3′,4′,6′-hepta-O-sulfato-β-gentiobiopyranosyl)-D-mannitol deca potassium salt] | – | 6100 | 7830

Continued, values first:

melting point [°C] | IC50 ([1]; read-out: Average IC50) [nM] | IC50 [1, 2] [nM] | SMILES
> 220 | – | – | O=S(=O)(O)OCC(OS(=O)(=O)O)C(OC1OC(COS(=O)(=O)O)C(OS(=O)(=O)O)C(OS(=O)(=O)O)C1OS(=O)(=O)O)C(OS(=O)(=O)O)C(COS(=O)(=O)O)OS(=O)(=O)O (as salt: potassium) [Example 6, 1,2,3,5,6-penta-O-sulfato-4-O-(2,3,4,6-tetra-β-sulfato-β-D-glucopyranosyl)-D-glucitol nona potassium salt]
> 220 | – | – | O=S(=O)(O)OC[C@H](OS(=O)(=O)O)[C@@H](OS(=O)(=O)O)[C@H](O[C@@H]1O[C@H](COS(=O)(=O)O)[C@H](OS(=O)(=O)O)[C@H](OS(=O)(=O)O)[C@H]1OS(=O)(=O)O)[C@@H](COS(=O)(=O)O)OS(=O)(=O)O (as salt: potassium) [Example 7, 1,2,3,5,6-penta-O-sulfato-4-O-(2,3,4,6-tetra-O-sulfato-β-D-galactopyranosyl)-D-glucitol nona potassium salt]
– | 100 | 131 | O=S(=O)(O)OC[C@H]1O[C@@H](OC[C@@H](OS(=O)(=O)O)[C@@H](OS(=O)(=O)O)[C@H](OS(=O)(=O)O)[C@@H](COS(=O)(=O)O)OS(=O)(=O)O)[C@H](OS(=O)(=O)O)[C@@H](OS(=O)(=O)O)[C@@H]1OS(=O)(=O)O [Example 1, 2,3,4,5,6-penta-O-sulfato-1-O-(2,3,4,6-tetra-O-sulfato-β-D-glucopyranosyl)-D-mannitol nona potassium salt]
– | 1410 | 1870 | O=S(=O)(O)OC[C@H](OS(=O)(=O)O)[C@@H](OS(=O)(=O)O)[C@H](OS(=O)(=O)O)[C@@H](CO[C@@H]1O[C@H](COS(=O)(=O)O)[C@@H](OS(=O)(=O)O)[C@H](OS(=O)(=O)O)[C@H]1OS(=O)(=O)O)OS(=O)(=O)O [Example 2, 1,2,3,4,5-penta-O-sulfato-6-O-(2,3,4,6-tetra-O-sulfato-β-D-glucopyranosyl)-D-glucitol nona potassium salt]
– | 263 | 347 | O=S(=O)(O)OC[C@H](OS(=O)(=O)O)[C@@H](OS(=O)(=O)O)[C@H](O[C@H]1O[C@H](COS(=O)(=O)O)[C@@H](OS(=O)(=O)O)[C@H](OS(=O)(=O)O)[C@H]1OS(=O)(=O)O)[C@@H](COS(=O)(=O)O)OS(=O)(=O)O [Example 5, 1,2,3,5,6-penta-O-sulfato-4-O-(2,3,4,6-tetra-O-sulfato-α-D-glucopyranosyl)-D-glucitol nona potassium salt]
– | 256 | 338 | O=S(=O)(O)OCC(OS(=O)(=O)O)C(OC1OC(COS(=O)(=O)O)C(OS(=O)(=O)O)C(OS(=O)(=O)O)C1OS(=O)(=O)O)C(OS(=O)(=O)O)C(COS(=O)(=O)O)OS(=O)(=O)O [Example 6, 1,2,3,5,6-penta-O-sulfato-4-O-(2,3,4,6-tetra-β-sulfato-β-D-glucopyranosyl)-D-glucitol nona potassium salt]
– | 800 | 1050 | O=S(=O)(O)OC[C@H]1O[C@@H](OC[C@H](OS(=O)(=O)O)[C@@H](O[C@@H]2O[C@H](COS(=O)(=O)O)[C@@H](OS(=O)(=O)O)[C@H](OS(=O)(=O)O)[C@H]2OS(=O)(=O)O)[C@H](OS(=O)(=O)O)[C@@H](COS(=O)(=O)O)OS(=O)(=O)O)[C@H](OS(=O)(=O)O)[C@@H](OS(=O)(=O)O)[C@@H]1OS(=O)(=O)O [Example 8, 2,4,5,6-tetra-O-sulfato-1,3-bis-O-(2,3,4,6-tetra-O-sulfato-β-D-glucopyranosyl)-D-glucitol dodeca potassium salt]
– | 284 | 383 | O=S(=O)(O)OCC1OC(OCC2OC(OCC(OS(=O)(=O)O)C(OS(=O)(=O)O)C(OS(=O)(=O)O)C(COC3OC(COC4OC(COS(=O)(=O)O)C(OS(=O)(=O)O)C(OS(=O)(=O)O)C4OS(=O)(=O)O)C(OS(=O)(=O)O)C(OS(=O)(=O)O)C3OS(=O)(=O)O)OS(=O)(=O)O)C(OS(=O)(=O)O)C(OS(=O)(=O)O)C2OS(=O)(=O)O)C(OS(=O)(=O)O)C(OS(=O)(=O)O)C1OS(=O)(=O)O [Example 10, 2,3,4,5-tetra-O-sulfato-1,6-bis-O-(2,3,4,2′,3′,4′,6′-hepta-O-sulfato-β-gentiobiopyranosyl)-D-mannitol octadeca potassium salt]
– | 702 | 2020 | O=S(=O)(O)OC[C@@H](OS(=O)(=O)O)[C@@H](OS(=O)(=O)O)[C@H](OS(=O)(=O)O)[C@@H](CO[C@H]1OC[C@@H](OS(=O)(=O)O)[C@@H](OS(=O)(=O)O)[C@@H]1OS(=O)(=O)O)OS(=O)(=O)O [Example 16, 2,3,4,5,6-penta-O-sulfato-1-O-(2,3,4-tri-O-sulfato-α-D-arabinopyranosyl)-D-mannitol octa potassium salt]
